Measurements from PubChem BioAssay AID1648 (Sanford-Burnham Center for Chemical Genomics, 2009).
Calls of active or inactive are those of the source. No rule for the calls is given here.

Target: Serine/threonine-protein kinase mTOR (Homo sapiens) (UniProt P42345)
Assay: binders of mTOR FRB domain, biophysical, NMR (AID 1648)
Conditions: NMR binding to FRB domain, chemical shift

Serine/threonine-protein kinase mTOR (Homo sapiens), sequence (P42345 2015-2114): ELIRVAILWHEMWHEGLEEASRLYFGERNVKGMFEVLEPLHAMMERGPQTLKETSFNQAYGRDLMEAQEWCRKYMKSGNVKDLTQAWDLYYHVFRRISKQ

Compound	Kd
O=C(NS(=O)(=O)c1ccccc1)c1ccccc1F	> 4 mM (inactive)
CC(=O)N1CC2(C)CN(C(C)=O)CC(C)(C1)C2O (centres undefined)	> 4 mM (inactive)
Cn1ncc(C(=O)O)c1-c1ccccc1	> 4 mM (inactive)
O=C(Cc1cccs1)Nc1ccon1	> 4 mM (inactive)
OC(CCl)c1ccc(-n2cncn2)cc1 (centres undefined)	> 4 mM (inactive)
CC(=O)N1C(=S)NC(=O)/C1=C\c1cccnc1	> 4 mM (inactive)
O=C(CSc1ccccc1)N1CCC2(CC1)OCCO2	> 4 mM (inactive)
Cc1ccc(/C=N/n2c(C)nnc2C)cc1	> 4 mM (inactive)
C/C1=C/CC(C)(C)/C=C/C/C(C)=C/CC1	> 4 mM (inactive)
O=C1CN(c2ccccc2)CC(=O)N1	> 4 mM (inactive)
CC(=O)Nc1ccc(N(C)C(C)=O)cc1	> 4 mM (inactive)
O=C(c1cc(-c2ccccc2)on1)N1CCCC1	> 4 mM (inactive)
O=c1[nH]cc(NCc2ccccc2)c(=O)[nH]1	> 4 mM (inactive)
Cc1cc(N)ccc1NC(=O)c1ccco1	> 4 mM (inactive)
COc1ccc2c(c1OC)C(=O)N(c1ncn[nH]1)C2	> 4 mM (inactive)
CC(=O)c1cc(C(N)=O)c(=S)[nH]c1C	> 4 mM (inactive)
Cc1ccc(N)nc1	> 4 mM (inactive)
CN1CCN(C(=O)c2ccccc2C(=O)O)CC1	> 4 mM (inactive)
COc1c(C(=O)N2CCCC2)ccc2ccccc12	> 4 mM (inactive)
COC(=O)CCC(C)C1CCC2C3CCC4C[C@H](O)CC[C@]4(C)C3C[C@H](O)[C@]12C (some centres undefined)	> 4 mM (inactive)

Compound	Kd
CCOC(=O)c1cc(C)n(C)n1	> 4 mM (inactive)
CC1(C)Cc2cccc(CO)c2O1	> 4 mM (inactive)
CC1(C)CC[C@]2(C(=O)O)CC[C@]3(C)C(=CCC4[C@@]5(C)CC[C@@H](O)C(C)(C)C5CC[C@]43C)C2C1 (some centres undefined)	> 4 mM (inactive)
COc1cc2c(c(OC)c1OC)-c1ccc(O)c(=O)cc1[C@@H](NC(C)=O)CC2	> 4 mM (inactive)
Cc1cc(NC(=O)c2cc(C)on2)no1	> 4 mM (inactive)
CCCCCCCCCCCCCCC(C(=O)OC)C(O)(CC(=O)OC)C(=O)OC (centres undefined)	> 4 mM (inactive)
O=[N+]([O-])c1c[n+]([O-])n(-c2ccccc2)n1	> 4 mM (inactive)
O=S1(=O)CCC(NC(=S)Nc2ccccc2)C1 (centres undefined)	> 4 mM (inactive)
COc1ccc(C(O)c2nccn2C)cc1 (centres undefined)	> 4 mM (inactive)
Cc1csc2nc(=O)c3ccccc3n12	> 4 mM (inactive)
NC12CC3CC(C1)CC(O)(C3)C2	> 4 mM (inactive)
CSc1ccc2nnc(-c3cccnc3)n2n1	> 4 mM (inactive)
O=c1c2c(nc3nc(Cc4ccccc4)[nH]n13)CCC2	> 4 mM (inactive)
Nc1nc2ccc(N3CCOCC3)cc2s1	> 4 mM (inactive)
CN1C(=O)Cc2cc(S(N)(=O)=O)ccc21	> 4 mM (inactive)
NCc1cn2ccccc2n1	> 4 mM (inactive)
CN(C)S(=O)(=O)c1cccc(N)c1	> 4 mM (inactive)
Cn1c(=O)c2c(ncn2C)n(C)c1=O	> 4 mM (inactive)
Cn1nc(-c2ccccc2)cc1N	> 4 mM (inactive)
NCCCCN=C(N)N	> 4 mM (inactive)

Compound	Kd
c1ccc(-n2nnnc2-n2cnc3ccccc32)cc1	> 4 mM (inactive)
Nc1ncnc(NCCOCCO)c1[N+](=O)[O-]	> 4 mM (inactive)
CC(=O)Nc1ccc2c(c1)CCC2=O	> 4 mM (inactive)
O=C(O)CSc1cccc2cccnc12	> 4 mM (inactive)
COC(=O)c1c[nH]c2ccccc12	> 4 mM (inactive)
C[C@@H]1CC[C@H]2[C@@H](C)C(=O)O[C@@H]3OC4(C)CC[C@@H]1[C@]32OO4	> 4 mM (inactive)
Cc1cc(=O)cc(C)n1-c1ccccc1N	> 4 mM (inactive)
O=C(O)C12CC3CC(CC(O)(C3)C1)C2	> 4 mM (inactive)
S=C(NC1=NCCS1)Nc1ccccc1	> 4 mM (inactive)
CC(=O)Nc1ccc(S(N)(=O)=O)cc1	> 4 mM (inactive)
C=C(C)C1CC=C(CO)CC1 (centres undefined)	> 4 mM (inactive)
Cn1[nH]c(C(F)(F)F)cc1=O	> 4 mM (inactive)
CCCn1c(C)cc(=O)[nH]c1=O	> 4 mM (inactive)
Nc1nc2n(c1C(=O)c1ccccc1)CCC2	> 4 mM (inactive)
N=c1n(N)c2ccccc2n1CCO	> 4 mM (inactive)
COc1cc2nc(-c3cccs3)oc(=O)c2cc1OC	> 4 mM (inactive)
COC(=O)c1ccccc1C	> 4 mM (inactive)
COC(=O)[C@]1(C)CCC[C@]2(C)c3ccc(C(C)C)cc3C(=O)CC12 (some centres undefined)	> 4 mM (inactive)
Cn1cc(Cl)c(C(=O)NC2CCCCCC2)n1	> 4 mM (inactive)
